19 molecules from PubChem BioAssay (NCI) can be followed below.

What all share (test): DTP human tumour cell line panel, 48 h
Assay [1] relates to IGROV1 ovarian.
Assay [2] relates to OVCAR-5 ovarian.
Assay [3] has as its system SNB-75 CNS.
The test system of assay [4] is T-47D breast.
In assay [5] the test system is TK-10 renal.
In assay [6] the test system is SNB-19 CNS.
Assay [7] deals with A549 NSCLC.
Assay [8] deals with MCF7 breast.
Assay [9] deals with SF-295 CNS.
In assay [10] the test system is SN12C renal.

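Briefly, cells in 96-well plates were exposed to five compound concentrations for 48 h, and endpoints were estimated by linear interpolation. Abbreviation: GI50, concentration required for 50% inhibition of growth. Definition used: TGI = concentration required for complete inhibition of growth.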 *1 amine or outer side, *2 acyl side, *3 side chain or, on linkers, in order; H or OH if unused. Where a SMILES comes first, the peptide text is derived from it. [ ]: non-standard residue; d: D form. The star is where a group is joined. X12 = NCCCCC(N[*:1])C(=O)CN1CCCC1C(=O)[*:2]; Pentadecanoyl = CCCCCCCCCCCCCCC(=O)* Some results are limits rather than exact numbers.

Consider `Oc1[nH]c2ccccc2c1N=NC(=S)NCc1ccccn1`, for which the TGI in [1] was determined as 13.9 µM; in assay [2] it was 22.7 µM; in assay [3] it was 6.6 µM; in [4] it was 21.4 µM; in assay [5] it was 18.3 µM; in assay [6], 15.2 µM. In addition, the TGI in [7] is 13.7 µM; in [8] it was 14.1 µM; in [9] it was 18 µM; in [10], 14.5 µM.
With `CC(C)(CO)Nc1c(O)c2c(c(O)c1Cl)C(=O)C=CC2=O`, the TGI in assay [1] was 2.92 µM; in assay [2], 3.02 µM; in assay [3], 2.6 µM; in [4] it was 4.18 µM; in assay [5] it was 3.36 µM; in assay [6], 3.5 µM. Moreover, the TGI worked out at 3.61 µM in assay [7], 2.65 µM in assay [8], 3.21 µM in [9] and 2.91 µM in [10].
As to `C/C(=N/NC(=O)c1ccccc1Nc1ccccc1C(=O)N/N=C(\C)c1ccc(C)cc1)c1ccc(C)cc1`, the TGI in assay [1], in assay [2], in assay [3], in [4], in [5] and in assay [6] was over 100 µM each time. Also, the concentration for total growth inhibition (TGI) in assay [7], in assay [8], in assay [9] and in assay [10] was over 100 µM each time.
In the case of `O=c1[nH]c(=O)c2c([nH]1)[nH]c1ccccc12`, the total growth inhibition concentration (TGI) in [1], in assay [2], in assay [3], in [4], in assay [5] and in [6] was over 100 µM in each case. In addition, the concentration for total growth inhibition (TGI) in assay [7], in assay [8], in [9] and in assay [10] was over 100 µM throughout.
`CC1=NNC(N)=N/C1=C\C(Sc1ccc(Cl)cc1)c1ccc(Cl)cc1Cl` (centres undefined): the TGI came to 21.9 µM in assay [1]; 36.7 µM in assay [2]; 32.9 µM in assay [3]; 38.8 µM in assay [4]; 45.9 µM in [5]; 32.8 µM in assay [6]. The TGI in assay [7] was determined as 59.4 µM; in assay [8] it was 16.4 µM; in [9], 52.9 µM; in assay [10] it was 62.4 µM.
For the molecule `COc1ccc(C2CCc3c(cnc4nc(N)nc(N)c34)C2)cc1` (centres undefined), the TGI in [1] is over 100 µM; in assay [2], over 100 µM; in assay [3], 26.7 µM; in [4] it was 95.3 µM; in assay [5], 36 µM; in [6], over 100 µM. Besides, the concentration for total growth inhibition (TGI) in assay [7] is over 100 µM; in [8], 45.1 µM; in assay [9], over 100 µM; in [10] it was over 100 µM.
Consider `N#CC(NNC(=O)c1c(Cl)c(Cl)c(Cl)c(Cl)c1-c1nc2ccc(C(=O)c3ccccc3)cc2[nH]1)c1cccc(Oc2ccccc2)c1` (centres undefined), for which the TGI was 93.1 µM in assay [1]; 80.3 µM in [2]; 72.8 µM in assay [3]; 76.2 µM in assay [4]; 95.1 µM in assay [5]; 90 µM in assay [6]. Further, the TGI in assay [7] was over 100 µM; in assay [8], 65.6 µM; in assay [9] it was 96.6 µM; in assay [10], 67.2 µM.
Turning to `Clc1ccc(C2=NNC(c3cccc(Cl)c3)C2)cc1` (centres undefined), the TGI in assay [1] is 5.07 µM; in assay [2], over 100 µM; in assay [3], 96.5 µM; in assay [4] it was over 100 µM; in assay [5], 79.9 µM; in assay [6], over 100 µM. In addition, the concentration for total growth inhibition (TGI) in [7] was over 100 µM; in assay [8], over 100 µM; in assay [9], 92.6 µM; in assay [10] it was 53.2 µM.
Take `C[S+](C)C1(c2ccccc2)C(=O)c2ccccc2C1=O`: the total growth inhibition concentration (TGI) in assay [1] is over 100 µM; in assay [2] it was over 89.7 µM; in assay [3], over 89.2 µM; in [4], 92.1 µM; in assay [5] it was over 100 µM; in [6], over 100 µM. Moreover, the concentration for total growth inhibition (TGI) in [7] is 97.7 µM; in assay [8], over 100 µM; in [9] it was 99.2 µM; in [10] it was over 100 µM.
`CN1CCN(C2CC(=O)c3c(Cl)sc(Cl)c32)CC1` (centres undefined): the TGI in assay [1] is over 25.6 µM; in assay [2], over 60.8 µM; in assay [3] it was 41.5 µM; in assay [4], over 45.9 µM; in assay [5], over 61 µM; in assay [6], over 100 µM. Further, the TGI was over 52.9 µM in assay [7], over 100 µM in assay [8], over 31.6 µM in [9] and 30 µM in assay [10].
For the molecule `COC1OC(=O)C(OC)C(OC)C1OC` (centres undefined), the total growth inhibition concentration (TGI) in [1], in [2], in assay [3], in [4], in assay [5] and in assay [6] was over 100 µM in each case. Also, the TGI in [7], in assay [8], in assay [9] and in [10] was over 100 µM each time.
`O=C(O)CCC(NC(=O)/C(=C/c1ccccc1)NC(=O)c1ccccc1)C(=O)O` (centres undefined): the total growth inhibition concentration (TGI) in [1], in assay [2], in [3], in assay [4], in assay [5] and in [6] was over 100 µM in each case. Also, the TGI in assay [7], in assay [8], in assay [9] and in assay [10] was over 100 µM each time.
As to `C[C@@H]1CC(=O)[C@@]2(C)[C@](O)(CCC3O[C@]32C)[C@@]12CC(c1ccoc1)OC2=O` (some centres undefined), the total growth inhibition concentration (TGI) in [1], in assay [2], in assay [3], in [4], in assay [5] and in [6] was over 100 µM each time. Further, the TGI in assay [7], in assay [8] and in assay [9] was over 100 µM each time.
As for `CSC(=N/N=C(\C)c1ccc(S(=O)(=O)N(C)c2ccccc2)cc1)SC`, the TGI in [1], in assay [2], in assay [3], in assay [4], in assay [5] and in assay [6] was over 100 µM in each case. Further, the TGI in assay [7], in [8], in assay [9] and in assay [10] was over 100 µM in each case.
On to `Cc1nc2cccc(F)c2c(=O)n1-c1nnc(C2CC2)s1`, for which the total growth inhibition concentration (TGI) in assay [1], in assay [2], in [3], in assay [4], in [5] and in assay [6] was over 10 µM in each case. Also, the TGI in assay [7], in assay [8], in assay [9] and in [10] was over 10 µM each time.
`CCCCCCCCCCCCCCC(=O)NC(CCCCN)C(=O)CN1CCCC1C(=O)NCC(=O)NC(Cc1ccccc1)C(=O)N1CCCC1C(=O)NC(CO)C(=O)NC(Cc1ccc(O)cc1)C(=O)NC(CCCCN)C(=O)NC(CC(C)C)C(=O)NC(CCCN=C(N)N)C(=O)N1CCCC1C(=O)NCC(N)=O` (centres undefined) (Pentadecanoyl-[X12]GFPSYKLRPG-NH2; configuration not given here): the GI50 in assay [1] is 19.5 µM; in [2], 18.7 µM; in assay [3] it was 27.6 µM; in assay [4], 17.2 µM; in assay [5], 11.7 µM; in assay [6], 24.4 µM. In addition, the GI50 in [7] is 23.7 µM; in [8], 27.6 µM; in assay [9], 26.2 µM. The TGI came out at 57.3 µM in assay [1]; 44.4 µM in assay [2]; 58.5 µM in [3]; 40.7 µM in assay [4]; 32.9 µM in [5]; 50.4 µM in assay [6]. For the same molecule, the results for the total growth inhibition concentration (TGI) in assay [7], in [8] and in [9] were 47.6 µM, 61.3 µM and 57.3 µM, respectively.
On to `O=C(N(C1=CCCC1)N(c1ccccc1)c1ccccc1)C(F)(F)F`, for which the total growth inhibition concentration (TGI) in assay [2] is over 100 µM; in assay [3] it was over 100 µM; in assay [4] it was 65.8 µM; in assay [5], over 100 µM; in [6], over 100 µM; in assay [7] it was 98.4 µM. Also, the total growth inhibition concentration (TGI) was determined as 44.6 µM in assay [8], 77 µM in assay [9] and 78.7 µM in assay [10].
`N#Cc1c(NC(=S)Nc2ccccc2)sc2c1CCCC2`: the TGI in [1], in [2], in assay [3], in assay [4], in assay [5] and in assay [6] was over 100 µM each time. The TGI in assay [8], in [9] and in assay [10] was over 100 µM in each case.
`C=C1CC2C[C@H](OS(=O)(=O)c3ccc(C)cc3)C(C1)N2C` (some centres undefined): the TGI in assay [1], in assay [3], in assay [4], in assay [5], in [6] and in assay [7] was over 100 µM each time. Further, the concentration for total growth inhibition (TGI) in assay [8], in assay [9] and in assay [10] was over 100 µM in each case.

A word on the TGI: it is the concentration at which net growth stops. The term GI50 denotes the concentration that inhibits growth by half.
